{"source": "ChEMBL document CHEMBL6177998", "about": "“Rational Design of Dual Degraders by Incorporating Molecular Glue Structural Features into PROTAC Degraders” (J Med Chem, 2025)", "key": {"[1]": {"molecular_target": "T1, Protein cereblon/Androgen receptor (Homo sapiens, UniProt P10275+Q96SW2)", "T1 sequence (P10275 whole entry, looked up)": "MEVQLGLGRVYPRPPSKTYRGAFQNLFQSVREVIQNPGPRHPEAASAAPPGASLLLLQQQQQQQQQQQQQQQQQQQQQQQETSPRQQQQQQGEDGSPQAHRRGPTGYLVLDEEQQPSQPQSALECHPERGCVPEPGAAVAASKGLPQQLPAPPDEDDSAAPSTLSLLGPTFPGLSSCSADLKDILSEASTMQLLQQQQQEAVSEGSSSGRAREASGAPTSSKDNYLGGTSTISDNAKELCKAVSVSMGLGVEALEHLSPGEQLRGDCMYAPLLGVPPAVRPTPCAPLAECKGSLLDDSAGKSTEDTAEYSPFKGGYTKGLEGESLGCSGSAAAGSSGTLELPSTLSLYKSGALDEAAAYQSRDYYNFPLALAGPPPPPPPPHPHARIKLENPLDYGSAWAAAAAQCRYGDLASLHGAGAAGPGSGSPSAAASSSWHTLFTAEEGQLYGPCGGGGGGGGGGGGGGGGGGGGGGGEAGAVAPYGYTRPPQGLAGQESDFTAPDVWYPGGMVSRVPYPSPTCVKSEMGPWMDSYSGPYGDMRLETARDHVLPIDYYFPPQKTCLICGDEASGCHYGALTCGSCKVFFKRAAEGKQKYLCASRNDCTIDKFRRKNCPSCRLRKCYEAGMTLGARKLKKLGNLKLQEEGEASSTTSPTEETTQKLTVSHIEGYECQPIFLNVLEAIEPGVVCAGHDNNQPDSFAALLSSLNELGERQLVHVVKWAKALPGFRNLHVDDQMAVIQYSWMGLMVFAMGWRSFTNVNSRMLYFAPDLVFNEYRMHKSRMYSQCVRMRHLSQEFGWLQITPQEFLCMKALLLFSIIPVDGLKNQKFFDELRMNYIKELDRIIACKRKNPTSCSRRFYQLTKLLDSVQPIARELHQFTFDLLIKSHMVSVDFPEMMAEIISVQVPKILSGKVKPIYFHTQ", "T1 sequence (Q96SW2 whole entry, looked up)": "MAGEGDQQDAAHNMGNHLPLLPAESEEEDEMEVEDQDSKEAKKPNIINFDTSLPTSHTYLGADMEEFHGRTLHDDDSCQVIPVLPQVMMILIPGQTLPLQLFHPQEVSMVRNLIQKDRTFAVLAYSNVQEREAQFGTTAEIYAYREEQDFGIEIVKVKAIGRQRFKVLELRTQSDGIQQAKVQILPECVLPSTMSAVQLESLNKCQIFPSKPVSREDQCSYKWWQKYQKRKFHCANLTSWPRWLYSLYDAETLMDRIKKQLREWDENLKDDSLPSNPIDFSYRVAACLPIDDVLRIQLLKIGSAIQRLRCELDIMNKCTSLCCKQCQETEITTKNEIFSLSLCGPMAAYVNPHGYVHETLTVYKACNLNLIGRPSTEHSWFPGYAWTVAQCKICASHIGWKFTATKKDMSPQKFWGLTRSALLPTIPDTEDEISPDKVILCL", "assay": "PROTAC activity at CRBN/AR in human 22Rv1 cells assessed as induction of AR degradation at 0.1 uM incubated for 24 hrs by Western blot analysis relative to control", "assay_type": "cell-based"}, "[2]": {"tested_on": "Protein cereblon/Androgen receptor (Homo sapiens), P10275+Q96SW2 [UNDEFINED MUTATION]", "sequence (P10275 whole entry, looked up, change not shown, canonical isoform)": "as the sequence (P10275 whole entry, looked up) above", "sequence (Q96SW2 whole entry, looked up, change not shown, canonical isoform)": "as the sequence (Q96SW2 whole entry, looked up) above", "assay": "PROTAC activity at CRBN/Androgen receptor splice variant 7 in human 22Rv1 cells assessed as induction of AR-V7 degradation at 0.01 uM incubated for 24 hrs by Western blot analysis relative to control", "assay_type": "cell-based"}, "[3]": {"tested_on": "Protein cereblon/Androgen receptor (Homo sapiens), P10275+Q96SW2 [UNDEFINED MUTATION]", "assay": "PROTAC activity at CRBN/Androgen receptor splice variant 7 in human 22Rv1 cells assessed as induction of AR-V7 degradation at 0.1 uM incubated for 24 hrs by Western blot analysis relative to control", "assay_type": "cell-based"}, "[4]": {"molecular_target": "T1, Protein cereblon/Androgen receptor", "assay": "PROTAC activity at CRBN/AR in human VCaP cells assessed as induction of AR degradation at 0.1 uM incubated for 24 hrs by Western blot analysis relative to control", "assay_type": "cell-based"}, "[5]": {"molecular_target": "T1, Protein cereblon/Androgen receptor", "assay": "PROTAC activity at CRBN/AR in human 22Rv1 cells assessed as induction of AR degradation at 20 nM incubated for 1 hrs by Western blot analysis (reference value: 0 %)", "assay_type": "cell-based"}, "[6]": {"tested_on": "Protein cereblon/Androgen receptor (Homo sapiens), P10275+Q96SW2 [UNDEFINED MUTATION]", "assay": "PROTAC activity at CRBN/Androgen receptor splice variant 7 in human 22Rv1 cells assessed as induction of AR-V7 degradation at 20 nM incubated for 6 hrs by Western blot analysis (reference value: 0%)", "assay_type": "cell-based"}, "[7]": {"tested_on": "Protein cereblon/Androgen receptor (Homo sapiens), P10275+Q96SW2 [UNDEFINED MUTATION]", "assay": "PROTAC activity at CRBN/Androgen receptor splice variant 7 in human 22Rv1 cells assessed as induction of AR-V7 degradation at 20 nM incubated for 24 hrs by Western blot analysis (reference value: 0%)", "assay_type": "cell-based"}, "[8]": {"molecular_target": "T2, Protein cereblon/Eukaryotic peptide chain release factor GTP-binding subunit ERF3A (Homo sapiens, UniProt Q96SW2+P15170)", "T2 sequence (P15170 whole entry, looked up)": "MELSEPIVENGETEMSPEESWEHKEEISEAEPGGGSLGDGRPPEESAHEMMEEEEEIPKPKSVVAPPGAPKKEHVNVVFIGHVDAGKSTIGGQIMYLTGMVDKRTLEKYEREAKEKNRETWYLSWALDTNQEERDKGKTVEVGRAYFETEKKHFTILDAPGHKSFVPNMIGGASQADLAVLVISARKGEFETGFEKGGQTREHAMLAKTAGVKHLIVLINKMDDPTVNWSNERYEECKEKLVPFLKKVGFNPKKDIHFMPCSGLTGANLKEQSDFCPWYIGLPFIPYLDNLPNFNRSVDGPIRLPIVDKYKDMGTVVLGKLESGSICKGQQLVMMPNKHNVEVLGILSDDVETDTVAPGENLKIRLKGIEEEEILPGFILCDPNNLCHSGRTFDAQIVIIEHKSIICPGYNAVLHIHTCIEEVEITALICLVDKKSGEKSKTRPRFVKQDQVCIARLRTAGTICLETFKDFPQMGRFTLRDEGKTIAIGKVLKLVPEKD", "T2 sequence (Q96SW2 whole entry, looked up)": "as the sequence (Q96SW2 whole entry, looked up) above", "assay": "Molecular glue activity at CRBN/GSPT1 in human 22Rv1 cells assessed as induction of GSPT1 degradation at 20 nM incubated for 2 hrs by Western blot analysis (reference value: 0 %)", "assay_type": "cell-based"}, "[9]": {"molecular_target": "T2, Protein cereblon/Eukaryotic peptide chain release factor GTP-binding subunit ERF3A", "assay": "Molecular glue activity at CRBN/GSPT1 in human 22Rv1 cells assessed as induction of GSPT1 degradation at 20 nM incubated for 36 hrs by Western blot analysis (reference value: 0 %)", "assay_type": "cell-based"}, "[10]": {"molecular_target": "T1, Protein cereblon/Androgen receptor", "assay": "PROTAC activity at CRBN/AR in human LNCaP cells assessed as induction of AR degradation at 20 nM by Western blot analysis", "assay_type": "cell-based", "settings": "time 1-36 hrs"}, "[11]": {"molecular_target": "T2, Protein cereblon/Eukaryotic peptide chain release factor GTP-binding subunit ERF3A", "assay": "Molecular glue activity at CRBN/GSPT1 in human 22Rv1 cells assessed as induction of GSPT1 degradation by measuring maximal efficacy incubated for 24 hrs by Western blot analysis relative to control", "assay_type": "cell-based"}, "[12]": {"molecular_target": "T1, Protein cereblon/Androgen receptor", "assay": "PROTAC activity at CRBN/AR in human LNCaP cells assessed as induction of AR degradation by measuring maximal efficacy incubated for 24 hrs by Western blot analysis relative to control", "assay_type": "cell-based"}, "[13]": {"tested_on": "CWR22R", "assay": "Effect on androgen receptor mRNA expression in human 22Rv1 cells at 1 to 10 nM incubated for 24 hrs by RT-PCR analysis", "assay_type": "functional, cell-based", "settings": "dose 1-10 nM"}, "[14]": {"molecular_target": "T1, Protein cereblon/Androgen receptor", "assay": "PROTAC activity at CRBN/AR in human 22Rv1 cells assessed as induction of AR degradation at 50 nM preincubated with MLN4924 followed by compound addition and measured after 12 hrs by Western blot analysis", "assay_type": "cell-based"}, "[15]": {"tested_on": "Protein cereblon/Androgen receptor (Homo sapiens), P10275+Q96SW2 [UNDEFINED MUTATION]", "assay": "PROTAC activity at CRBN/Androgen receptor splice variant 7 in human VCaP cells assessed as induction of AR-V7 degradation at 50 nM preincubated with MG132 followed by compound addition and measured after 12 hrs by Western blot analysis", "assay_type": "cell-based"}, "[16]": {"molecular_target": "T2, Protein cereblon/Eukaryotic peptide chain release factor GTP-binding subunit ERF3A", "assay": "Molecular glue activity at CRBN/GSPT1 in human VCaP cells assessed as induction of GSPT1 degradation at 50 nM preincubated with MG132 followed by compound addition and measured after 12 hrs by Western blot analysis", "assay_type": "cell-based"}, "[17]": {"molecular_target": "T2, Protein cereblon/Eukaryotic peptide chain release factor GTP-binding subunit ERF3A", "assay": "Molecular glue activity at CRBN/GSPT1 in human 22Rv1 cells assessed as induction of GSPT1 degradation at 20 uM preincubated with EPI-002 for 4 hrs followed by compound addition and measured after 36 hrs by Western blot analysis", "assay_type": "cell-based"}, "[18]": {"molecular_target": "Protein cereblon/Sal-like protein 4 (Homo sapiens) (UniProt Q96SW2+Q9UJQ4)", "sequence (Q96SW2 whole entry, looked up)": "as above", "sequence (Q9UJQ4 whole entry, looked up)": "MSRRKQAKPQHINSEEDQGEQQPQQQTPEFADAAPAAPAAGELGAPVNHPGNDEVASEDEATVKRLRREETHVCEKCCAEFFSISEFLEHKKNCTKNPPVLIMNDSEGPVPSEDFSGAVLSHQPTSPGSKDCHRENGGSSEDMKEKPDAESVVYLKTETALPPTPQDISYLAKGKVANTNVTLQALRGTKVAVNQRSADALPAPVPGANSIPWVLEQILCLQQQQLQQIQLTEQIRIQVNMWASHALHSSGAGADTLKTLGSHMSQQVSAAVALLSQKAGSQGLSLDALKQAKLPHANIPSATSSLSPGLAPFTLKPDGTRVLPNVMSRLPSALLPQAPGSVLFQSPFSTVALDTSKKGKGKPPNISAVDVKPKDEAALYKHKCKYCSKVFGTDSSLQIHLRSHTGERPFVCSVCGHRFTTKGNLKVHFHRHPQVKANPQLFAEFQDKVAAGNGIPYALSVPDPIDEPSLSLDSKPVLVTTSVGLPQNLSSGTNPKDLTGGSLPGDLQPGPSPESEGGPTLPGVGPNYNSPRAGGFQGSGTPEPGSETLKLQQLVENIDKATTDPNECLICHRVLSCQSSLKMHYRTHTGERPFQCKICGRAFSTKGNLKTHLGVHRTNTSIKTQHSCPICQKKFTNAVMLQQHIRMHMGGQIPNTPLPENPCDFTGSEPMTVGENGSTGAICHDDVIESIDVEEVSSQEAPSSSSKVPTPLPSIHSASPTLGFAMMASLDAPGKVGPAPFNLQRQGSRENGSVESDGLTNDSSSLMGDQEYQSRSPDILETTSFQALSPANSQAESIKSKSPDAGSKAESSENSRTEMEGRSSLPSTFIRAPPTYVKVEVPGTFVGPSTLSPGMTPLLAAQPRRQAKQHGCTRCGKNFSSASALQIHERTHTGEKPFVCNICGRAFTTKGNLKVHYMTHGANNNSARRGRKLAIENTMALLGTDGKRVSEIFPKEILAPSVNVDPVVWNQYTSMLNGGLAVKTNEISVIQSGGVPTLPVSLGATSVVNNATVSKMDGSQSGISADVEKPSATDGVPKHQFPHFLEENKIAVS", "assay": "Molecular glue activity at CRBN/SALL4 in human 22Rv1 cells assessed as induction of SALL4 degradation at 1 uM incubated for 6 hrs by Western blot analysis", "assay_type": "cell-based"}, "[19]": {"molecular_target": "Protein cereblon/Zinc finger protein Helios (Homo sapiens) (UniProt Q96SW2+Q9UKS7)", "sequence (Q96SW2 whole entry, looked up)": "as the sequence (Q96SW2 whole entry, looked up) above", "sequence (Q9UKS7 whole entry, looked up)": "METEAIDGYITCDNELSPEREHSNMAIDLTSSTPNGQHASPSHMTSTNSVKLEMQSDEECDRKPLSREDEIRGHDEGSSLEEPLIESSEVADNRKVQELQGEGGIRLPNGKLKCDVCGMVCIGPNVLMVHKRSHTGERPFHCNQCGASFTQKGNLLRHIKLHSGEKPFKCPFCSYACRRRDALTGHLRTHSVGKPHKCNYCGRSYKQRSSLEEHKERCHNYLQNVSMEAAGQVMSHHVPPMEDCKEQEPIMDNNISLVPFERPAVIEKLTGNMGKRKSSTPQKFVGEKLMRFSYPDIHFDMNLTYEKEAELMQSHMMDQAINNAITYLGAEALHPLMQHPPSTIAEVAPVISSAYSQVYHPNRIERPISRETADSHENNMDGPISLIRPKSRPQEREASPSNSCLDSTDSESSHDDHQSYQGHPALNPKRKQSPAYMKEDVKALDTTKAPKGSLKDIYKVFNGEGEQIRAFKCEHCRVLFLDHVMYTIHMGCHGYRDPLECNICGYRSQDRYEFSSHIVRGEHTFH", "assay": "Molecular glue activity at CRBN/IKZF2 in human 22Rv1 cells assessed as induction of IKZF2 degradation at 3 uM incubated for 6 hrs by Western blot analysis", "assay_type": "cell-based"}, "[20]": {"tested_on": "CWR22R", "assay": "Antiproliferative activity against AR-dependent human 22Rv1 cells assessed as cell growth inhibition incubated for 72 hrs by Celltiter-lumi luminescent cell viability assay", "assay_type": "functional, cell-based", "settings": "22Rv1, 72 h"}, "[21]": {"assay": "Selectivity ratio of IC50 for antiproliferative activity against AR-independent human DU-145 cells assessed as cell growth inhibition to IC50 for antiproliferative activity against AR-dependent human LNCaP cells assessed as cell growth inhibition", "assay_type": "functional"}, "[22]": {"assay": "Cytotoxicity against human THLE-2 cells assessed as cell growth inhibition incubated for 72 hrs by Celltiter-lumi luminescent cell viability assay", "assay_type": "toxicity, cell-based"}, "[23]": {"tested_on": "CWR22R", "assay": "Upregulation of p53 signaling pathway related gene expression in human 22Rv1 cells at 3 nM incubated for 24 hrs by KEGG enrichment analysis", "assay_type": "functional, cell-based"}, "[24]": {"tested_on": "CWR22R", "assay": "Downregulation of CCNB1IP1 gene expression in human 22Rv1 cells at 3 nM incubated for 24 hrs by Volcano plot analysis", "assay_type": "functional, cell-based"}, "[25]": {"molecular_target": "T1, Protein cereblon/Androgen receptor", "assay": "PROTAC activity at CRBN/AR in human 22Rv1 cells assessed as decrease in PSA mRNA level at 1 to 3 nM incubated for 24 hrs by qRT-PCR analysis", "assay_type": "cell-based", "settings": "dose 1-3 nM"}, "[26]": {"molecular_target": "T1, Protein cereblon/Androgen receptor", "assay": "PROTAC activity at CRBN/AR in human 22Rv1 cells assessed as decrease in FKBP5 mRNA level at 1 to 3 nM incubated for 24 hrs by qRT-PCR analysis", "assay_type": "cell-based", "settings": "dose 1-3 nM"}, "[27]": {"molecular_target": "T1, Protein cereblon/Androgen receptor", "assay": "PROTAC activity at CRBN/AR in human 22Rv1 cells assessed as decrease in PSA protein level incubated for 24 hrs by Western blot analysis", "assay_type": "cell-based", "settings": "dose 1-10 nM"}, "[28]": {"molecular_target": "T1, Protein cereblon/Androgen receptor", "assay": "PROTAC activity at CRBN/AR in human LNCaP cells assessed as decrease in PSA protein level incubated for 24 hrs by Western blot analysis", "assay_type": "cell-based", "settings": "dose 1-100 nM"}, "[29]": {"molecular_target": "Androgen receptor (Homo sapiens, UniProt P10275, F877L)", "sequence (P10275 whole entry F877L)": "as the sequence (P10275 whole entry, looked up) above, with F877L counted along it", "assay": "Inhibition of AR F876L mutant (unknown origin) transcriptional activity transfected in HEK293T cells co-transfected with PSA-luciferase reporter and pRL-TK assessed as reduction in PSA-luciferase activity incubated for 24 hrs by luminescence based microplate reader analysis", "assay_type": "cell-based"}, "[30]": {"assay": "Cmax in male ICR mouse at 2 mg/kg, iv by LC-MS/MS analysis", "assay_type": "ADME, organism-based", "settings": "in vivo"}, "[31]": {"assay": "AUC in male ICR mouse at 2 mg/kg, iv by LC-MS/MS analysis", "assay_type": "ADME, organism-based", "settings": "in vivo"}, "[32]": {"assay": "AUC in male ICR mouse at 10 mg/kg, po by LC-MS/MS analysis", "assay_type": "ADME, organism-based", "settings": "in vivo"}}, "note": "The source made the active and inactive calls. The rule behind the calls is not given here.", "data": [{"smiles": "COc1ccc(C(C)(C)c2cc(Cl)c(OCC3CCN(C(=O)CCCCCNc4ccc5c(c4)C(=O)N(C4CCC(=O)NC4=O)C5=O)CC3)c(C#N)c2)cc1", "note": "(configuration not stated)", "values": [{"measurement": "Activity", "setting": "[1]", "result": 89.9, "unit": "%"}, {"measurement": "Activity", "setting": "[2]", "result": 65.7, "unit": "%"}, {"measurement": "Activity", "setting": "[3]", "result": 76.7, "unit": "%"}, {"measurement": "Activity", "setting": "[4]", "result": 92.2, "unit": "%"}, {"measurement": "Activity", "setting": "[5]", "result": 49, "unit": "%"}, {"measurement": "Activity", "setting": "[6]", "result": 20.1, "unit": "%"}, {"measurement": "Activity", "setting": "[7]", "result": 95.5, "unit": "%"}, {"measurement": "Activity", "setting": "[8]", "result": 74.6, "unit": "%"}, {"measurement": "Activity", "setting": "[9]", "result": 98.5, "unit": "%"}, {"measurement": "Activity", "setting": "[10]", "result": "Time-dependent-effect"}, {"measurement": "Emax", "setting": "[11]", "result": 94.2, "unit": "%"}, {"measurement": "Emax", "setting": "[12]", "result": 78.7, "unit": "%"}, {"measurement": "Activity", "setting": "[13]", "result": "Minimal_effect"}, {"measurement": "Activity", "setting": "[14]", "result": "inactive"}, {"measurement": "Activity", "setting": "[15]", "result": "inactive"}, {"measurement": "Activity", "setting": "[16]", "result": "inactive"}, {"measurement": "Activity", "setting": "[17]", "result": "Active"}, {"measurement": "Activity", "setting": "[18]", "result": "inactive"}, {"measurement": "Activity", "setting": "[19]", "result": "Moderate_effect"}, {"measurement": "IC50", "setting": "[20]", "result": 1.1, "unit": "nM"}, {"measurement": "Ratio IC50", "setting": "[21]", "result": 315}, {"measurement": "IC50 at 72 h", "setting": "[22]", "result": "> 10000", "unit": "nM"}, {"measurement": "Activity", "setting": "[23]", "result": "Active"}, {"measurement": "Activity", "setting": "[24]", "result": "Active"}, {"measurement": "Activity", "setting": "[25]", "result": "Active"}, {"measurement": "Activity", "setting": "[26]", "result": "Active"}, {"measurement": "Activity", "setting": "[27]", "result": "Dose-dependent-effect"}, {"measurement": "Activity", "setting": "[28]", "result": "Dose-dependent-effect"}, {"measurement": "IC50", "setting": "[29]", "result": 48.6, "unit": "nM"}, {"measurement": "Cmax", "setting": "[30]", "result": 1120, "unit": "ng/mL"}, {"measurement": "AUC", "setting": "[31]", "result": 1850, "unit": "ng·h/mL"}, {"measurement": "AUC", "setting": "[32]", "result": 1040, "unit": "ng·h/mL"}]}]}
